Source: patent US20090030064A1, “Sugar-coated preparation” (Takeda Pharmaceutical Company Limited, priority 2005, published 2009)

Assay: Reference Example 1: bulk powder left in air, residual ratio
Type: physicochemical
Details: 40° C. and 75% RH in the air, 1 month
Description: A bulk powder of Compound A and sodium ascorbate were respectively left to stand for 1 month at 40° C. and 75% RH in the air, and then residual ratios thereof were measured. As a result, the residual ratio of Compound A was 89.7% (W/W), and the residual ratio of sodium ascorbate was 99.0% (W/W). Quantification of Compound A was carried out by a HPLC method under the following conditions. Solvent: acetonitrile Measurement wavelength: 287 nm Column: CHIRALCEL OJ-R 4.6 mm×150 mm (manufactured by Daicel Chemical Industries, Ltd.) Mobile phase: mixed solution of acetonitrile/10 mM aqueous ammonium acetate solution (16:9) Oven temperature: around 25° C. Quantification of sodium ascorbate was carried out by an iodine titration technique (solvent: metaphosphoric acid solution (1→50), indicator: starch test solution).

residual ratio | Structure (SMILES)
89.7 % (W/W) | COc1cc2c(cc1OC)CN(c1c(C)c(C)c3c(c1C)[C@@H](c1ccc(C)cc1)C(C)(C)O3)C2 [Compound A, (R)-5,6-dimethoxy-2-[2,2,4,6,7-pentamethyl-3-(4-methylphenyl)-2,3-dihydro-1-benzofuran-5-yl]isoindoline]
99.0 % (W/W) | O=C1O[C@H]([C@@H](O)CO)C([O-])=C1O.[Na+] [sodium ascorbate]
